Patent publication US20240277890A1, “ANTIMICROBIAL ARTICLES COMPRISING POLYURETHANE” (Amicoat AS, priority 2021, published 2024)
In brackets after ≈: the same amount, converted by molar mass. Where two headings read alike, the source gives them in different places. Peptide text beside a SMILES is read from it. * marks the point of attachment. NHPhenethyl = c1ccc(CCN*)cc1

Assays:
[1] = system: Staphylococcus aureus, strain ATCC 25923
[2] = system: Methicillin resistant Staphylococcus aureus (MRSA) strain ATCC 33591
[3] = system: Methicillin resistant Staphylococcus epidermidis (MRSE) strain ATCC 27626
[4] = system: Salmonella sp - antibiotic-susceptible clinical isolate; experiment: MIC microbroth dilution (CLSI); format: cell-based
[5] = system: Salmonella sp - multi-drug resistant clinical isolate; experiment: MIC microbroth dilution (CLSI); format: cell-based
[6] = system: Shigella sp - antibiotic-susceptible clinical isolate; experiment: MIC microbroth dilution (CLSI); format: cell-based
[7] = system: Clostridium difficile - antibiotic-susceptible clinical isolate; experiment: MIC microbroth dilution (CLSI); format: cell-based; design: unit not given beside the values; details: C. difficile antibiotic-susceptible
Description: Supplemented Brucella broth (SBB) was used for the anaerobic strains with an inoculum of approximately 10^6 CFU/mL. SBB is a broth consisting of 1% peptone, 0.5% ‘Lab-lemco’, 1% glucose and 0.5% sodium chloride supplemented with 5 μg/L haemin and 1 μg/L vitamin K (both obtained from Sigma Aldrich Ltd.) Yeast and filamentous fungal MIC were performed in MOPS buffered RPMI 1640 medium (MOPS buffer obtained from Sigma Aldrich Ltd., RPMI 1640 obtained from Invitrogen Ltd, Paisley, Scotland). The yeast inocula were in the range 7.5×10^2-4×10^3 CFU/mL and the filamentous fungi approximately 8×10^3-1×10^5 CFU/mL.

[8] = system: Candida parapsilosis ATCC 22019; experiment: MIC microbroth dilution (CLSI), extra control strain; format: cell-based; design: unit not given here; details: C. parapsilosis ATCC 22019; RPMI 1640
[9] = system: Bacteroides fragilis - ATCC 25285; experiment: as above; format: cell-based; design: unit not given here; details: B. fragilis ATCC 25285; SBB
[10] = system: Eggerthella lenta - ATCC 43055; experiment: as above; format: cell-based; design: unit not given here; details: E. lenta ATCC 43055; SBB
[11] = system: Staphylococcus aureus FDA486; experiment: Murine skin infection model, one day topical treatment; format: in vivo, mice; details: cream or gel containing 2% (w/w) of compound; three topical treatments at three hourly intervals; compared to placebo
Description: (§1) The skin of mice was infected with Staphylococcus aureus or Streptococcus pyogenes and subsequently given a total of three treatments at three hourly intervals. Three hours after the last treatment, skin biopsies were collected and the number of colony forming units (CFUs) present in the skin sample was determined. Results are shown in FIGS. 3, 4 and 5 expressed as the number of colony forming units per mouse.

[12] = system: Streptococcus pyogenes CS301; experiment: as above; format: in vivo, mice
Description: as §1

[13] = system: Microsporum canis - G.R. Micro collection; details: M. canis
[14] = system: Escherichia coli ATCC25922 - antibiotic-susceptible type strain; design: MIC (repeat control strain): unit not given beside the values; details: E. coli ATCC 25922
[15] = system: Pseudomonas aeruginosa ATCC27853 - antibiotic-susceptible type strain; design: MIC (repeat control strain): unit not given beside the values; details: P. aeruginosa ATCC 27853
[16] = system: Staphylococcus aureus ATCC 29213 - antibiotic-susceptible control strain; design: MIC (repeat control strain): unit not given beside the values; details: S. aureus ATCC 29213
[17] = system: Staphylococcus haemolyticus - antibiotic susceptible clinical isolate; details: S. haemolyticus antibiotic susceptible isolate
[18] = system: Enterococcus faecalis - ATCC 29212 antibiotic-susceptible control strain; design: MIC (repeat control strain): unit not given beside the values; details: E. faecalis ATCC 29212
[19] = system: Haemophilus influenzae - ATCC 47247; experiment: MIC microbroth dilution (CLSI), extra control strain; design: unit not given beside the values; details: H. influenzae ATCC 47247; plate type HTM
trypsin = experiment: in vitro; format: in vitro ADME; details: pH 8.6
Description: Each peptide was dissolved in a 0.1 M NH4HCO3 buffer (pH 6.5) to yield a final peptide concentration of 1 mg/ml. A trypsin solution was prepared by dissolving 1 mg of trypsin in 50 ml 0.1 M NH4HCO3 buffer (pH 8.2). For the stability determination, 250 μl freshly made trypsin solution and 250 μl peptide solution were incubated in 2 ml of 0.1 M NH4HCO3 buffer (pH 8.6) at 37° C. on a rocking table. Aliquots of 0.5 ml were sampled at different time intervals, diluted with 0.5 ml water:acetonitrile (60:40 v/v) containing 1% TFA and analysed by RP-HPLC as described above. Samples without trypsin addition taken at 0 h and after 20 h at 37° C. were used as negative controls. Integration of the peak area at 254 nm for samples taken during the first 5 hours of the assay was used to generate the τ1/2.

E. coli = details: Table 5
P. aeruginosa = details: Table 5
[20] = Staphylococcus aureus ATCC 25923

In the case of CC(C)(C)c1cc(C(C)(C)C)c2[nH]c(C(C)(C)C)c(C[C@H](NC(=O)[C@@H](N)CCCNC(=N)N)C(=O)N[C@@H](CCCNC(=N)N)C(=O)NC3CCCCC3)c2c1 [Compound 13], the “S. aureus (MIC)” value ([1]; ATCC 25923) is reported as <2 mg/L, the “MRSA (MIC)” value ([2]; ATCC 33591) is reported as 2 mg/L and the “MRSE (MIC)” value ([3]; ATCC 27626) is reported as 2 mg/L. For the same compound, the “C. albicans (MIC)” value (C. albicans) was 10 mg/L and the “S. pyogenes (MIC)” value (S. pyogenes) was <2 mg/L.
In the case of CCCNC(=O)[C@H](CCCNC(=N)N)NC(=O)[C@H](Cc1c(C(C)(C)C)[nH]c2c(C(C)(C)C)cc(C(C)(C)C)cc12)NC(=O)[C@@H](N)CCCNC(=N)N [Compound 10], the “S. aureus (MIC)” value ([1]; ATCC 25923) is reported as 2 mg/L, the “MRSA (MIC)” value ([2]; ATCC 33591) is reported as 3 mg/L and the “MRSE (MIC)” value ([3]; ATCC 27626) is reported as <2 mg/L. For the same compound, the “C. albicans (MIC)” value (C. albicans) was 10 mg/L and the “S. pyogenes (MIC)” value (S. pyogenes) was 2 mg/L.
In the case of CC(C)CNC(=O)[C@H](CCCNC(=N)N)NC(=O)[C@H](Cc1c(C(C)(C)C)[nH]c2c(C(C)(C)C)cc(C(C)(C)C)cc12)NC(=O)[C@@H](N)CCCNC(=N)N [Compound 12], the “S. aureus (MIC)” value ([1]; ATCC 25923) is reported as <2 mg/L, the “MRSA (MIC)” value ([2]; ATCC 33591) is reported as 3 mg/L and the “MRSE (MIC)” value ([3]; ATCC 27626) is reported as 2 mg/L. The “C. albicans (MIC)” value (C. albicans) was 10 mg/L and the “S. pyogenes (MIC)” value (S. pyogenes) was 2 mg/L.
Compound CC(C)(C)c1cc(C(C)(C)C)c2[nH]c(C(C)(C)C)c(CC(NC(=O)C(N)CCCNC(=N)N)C(=O)NC(CCCNC(=N)N)C(=O)NCCc3ccccc3)c2c1 (stereo not shown) [Compound 2] has an MIC [4] of 8, an MIC [5] of 8 and an MIC [6] of 8. The MIC [7] was 16, the “MIC (control strain)” value [8] was 8 and the “MIC (control strain)” value [9] was 64. The “MIC (control strain)” value [10] was 32, the “number of CFUs in skin biopsy” value [11] was “the number of CFUs was reduced” and the “number of CFUs in skin biopsy” value ([12]; 1% or 2% gel, three topical treatments at three hourly intervals, compared to placebo gel and bactroban) was “more effective at reducing the number of CFUs than the placebo gel or the bactroban”. The “number of CFUs in skin biopsy, 2% gel versus 1% gel” value ([12]; gel containing 2% compared to gel containing 1%) was “more effective than the gel containing only 1% of compound 2”, the MIC [13] was 8 and the “MIC (repeat control strain)” value ([14]; plate type Fresh MHB) was 8. For the same compound, the “MIC (repeat control strain)” value ([14]; plate type Frozen MHB) was 8, the “MIC (repeat control strain)” value ([15]; plate type Fresh MHB) was 8 and the “MIC (repeat control strain)” value ([15]; plate type Frozen MHB) was 8. The “MIC (repeat control strain)” value ([16]; plate type Fresh MHB) was 2, the “MIC (repeat control strain)” value ([16]; plate type Frozen MHB) was 4 and the MIC [17] was 4. For the same compound, the “MIC (repeat control strain)” value ([18]; plate type Fresh MHB) was 4, the “MIC (repeat control strain)” value ([18]; plate type Frozen MHB) was 8 and the “MIC (control strain)” value [19] was 4.
N=C(N)NCCC[C@H](NC(=O)[C@H](Cc1c[nH]c2ccccc12)NC(=O)[C@@H](N)CCCNC(=N)N)C(=O)NCCc1ccccc1 [Compound 6, reference compound] (H-Arg-Trp-Arg-NHPhenethyl) was tested, and the “MIC S. aureus” value [1, 20] was 145 µM (≈ 89.9 µg/mL), the “MIC MRSA” value ([2]; MRSA ATCC 33591) was 97 µM (≈ 60.1 µg/mL) and the “MIC MRSE” value ([3]; MRSE ATCC 27626) was 81 µM (≈ 50.2 µg/mL).
CCCCNC(=O)[C@H](CCCNC(=N)N)NC(=O)[C@H](Cc1c(C(C)(C)C)[nH]c2c(C(C)(C)C)cc(C(C)(C)C)cc12)NC(=O)[C@@H](N)CCCNC(=N)N [Compound 9] was tested, and the “S. aureus (MIC)” value ([1]; ATCC 25923) was 2 mg/L, the “MRSA (MIC)” value ([2]; ATCC 33591) was 3 mg/L and the “MRSE (MIC)” value ([3]; ATCC 27626) was <2 mg/L. The “C. albicans (MIC)” value (C. albicans) was 10 mg/L and the “S. pyogenes (MIC)” value (S. pyogenes) was 2 mg/L.
N=C(N)NCCC[C@H](NC(=O)[C@H](Cc1ccc(-c2ccc3ccccc3c2)cc1)NC(=O)[C@@H](N)CCCNC(=N)N)C(=O)NCCc1ccccc1 [Compound 1] was tested, and the half-life at 0.1 mg/ml (trypsin) was > 24 h, the “MIC S. aureus” value [1, 20] was 4 µM (≈ 2.83 µg/mL) and the “MIC MRSA” value ([2]; MRSA ATCC 33591) was <3 µM. For the same compound, the “MIC MRSE” value ([3]; MRSE ATCC 27626) was <3 µM.
CCCCCCCCCCCCCCCCNC(=O)[C@H](CCCNC(=N)N)NC(=O)[C@H](Cc1c(C(C)(C)C)[nH]c2c(C(C)(C)C)cc(C(C)(C)C)cc12)NC(=O)[C@@H](N)CCCNC(=N)N [Compound 11] was tested, and the “S. aureus (MIC)” value [1, 20] was 5 mg/L, the “MRSA (MIC)” value ([2]; MRSA ATCC 33591) was 4 mg/L and the “MRSE (MIC)” value ([3]; MRSE ATCC 27626) was 4 mg/L. For the same compound, the “C. albicans (MIC)” value (C. albicans; Table 5) was >100 mg/L, the “S. pyogenes (MIC)” value (S. pyogenes; Table 5) was 6 mg/L and the “E. coli (MIC)” value (E. coli) was >100 mg/L. The “P. aeruginosa (MIC)” value (P. aeruginosa) was >100 mg/L.
In the case of CC(C)(C)c1cc(C(C)(C)C)c2[nH]c(C(C)(C)C)c(C[C@H](NC(=O)[C@@H](N)CCCNC(=N)N)C(=O)N[C@@H](CCCNC(=N)N)C(=O)NC3CCCC3)c2c1 [Compound 14], the “S. aureus (MIC)” value ([1]; ATCC 25923) is reported as <2 mg/L, the “MRSE (MIC)” value ([3]; ATCC 27626) is reported as <2 mg/L and the “C. albicans (MIC)” value (C. albicans) is reported as 10 mg/L. For the same compound, the “S. pyogenes (MIC)” value (S. pyogenes) was 2 mg/L.
In the case of N=C(N)NCCC[C@H](NC(=O)[C@H](Cc1ccc(-c2ccc(-c3ccccc3)cc2)cc1)NC(=O)[C@@H](N)CCCNC(=N)N)C(=O)NCCc1ccccc1 [Compound 5], the “MIC S. aureus” value [1, 20] is reported as 5 µM (≈ 3.66 µg/mL), the “MIC MRSA” value ([2]; MRSA ATCC 33591) is reported as 3 µM (≈ 2.2 µg/mL) and the “MIC MRSE” value ([3]; MRSE ATCC 27626) is reported as 3 µM (≈ 2.2 µg/mL).
N=C(N)NCCC[C@H](NC(=O)[C@H](Cc1ccc(-c2cccc3ccccc23)cc1)NC(=O)[C@@H](N)CCCNC(=N)N)C(=O)NCCc1ccccc1 [Compound 3] was tested, and the “MIC MRSA” value ([2]; MRSA ATCC 33591) was 3 µM (≈ 2.12 µg/mL) and the “MIC MRSE” value ([3]; MRSE ATCC 27626) was 3 µM (≈ 2.12 µg/mL).
